Laboratory results published in ChEMBL document CHEMBL1201862, “PubChem BioAssay data set” (2004).
The source made the active and inactive calls.

Tests used:
Format in all cases: functional
[1] = target: Mitogen-activated protein kinase 13 (Homo sapiens, UniProt O15264)
[2] = target: ALK tyrosine kinase receptor (Homo sapiens, UniProt Q9UM73);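 note: ALK tested as one member of a kinase panel screen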
[3] = target: Wee1-like protein kinase (Homo sapiens, UniProt P30291); assay: Navigating the Kinome. Panel member name: WEE1
[4] = target: Melanin-concentrating hormone receptor 1 (Homo sapiens, UniProt Q99705); assay: Late-stage fluorescence-based counterscreen for antagonists of the G-protein coupled receptor 7 (GPR7): cell-based dose response assay to identify antagonists of the melanin-concentrating hormone receptor 1 (MCHR1) Set 5.
[5] = target: Neuropeptides B/W receptor type 1 (Homo sapiens, UniProt P48145); assay: GPR7 antagonist potency, late-stage follow-up, cell-based, fluorescence, dose response, set 5 (AID 588566)
[6] = target: Aurora kinase A (Homo sapiens, UniProt O14965);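 note: value from the Navigating the Kinome kinase panel profiling, panel entry STK6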
[7] = target: Cyclin-dependent kinase 19 (Homo sapiens, UniProt Q9BWU1); assay: Navigating the Kinome. Panel member name: CDC2L6
Sequence of Cyclin-dependent kinase 19 (Q9BWU1 whole entry): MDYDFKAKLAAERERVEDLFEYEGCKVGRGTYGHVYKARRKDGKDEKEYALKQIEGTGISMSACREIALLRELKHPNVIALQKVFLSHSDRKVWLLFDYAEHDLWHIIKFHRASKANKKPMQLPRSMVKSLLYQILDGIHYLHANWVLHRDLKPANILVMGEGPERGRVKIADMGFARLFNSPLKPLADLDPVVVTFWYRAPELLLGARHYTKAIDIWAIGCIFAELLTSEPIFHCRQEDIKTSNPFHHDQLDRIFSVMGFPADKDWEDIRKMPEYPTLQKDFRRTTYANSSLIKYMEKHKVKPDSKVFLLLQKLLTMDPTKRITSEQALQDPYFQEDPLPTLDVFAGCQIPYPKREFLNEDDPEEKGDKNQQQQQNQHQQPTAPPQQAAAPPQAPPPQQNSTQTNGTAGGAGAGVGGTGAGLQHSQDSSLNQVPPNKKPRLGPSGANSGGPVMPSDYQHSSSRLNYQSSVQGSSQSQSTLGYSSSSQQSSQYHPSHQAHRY

[8] = target: Aurora kinase B (Homo sapiens, UniProt Q96GD4)
Sequence of Aurora kinase B (Q96GD4 whole entry): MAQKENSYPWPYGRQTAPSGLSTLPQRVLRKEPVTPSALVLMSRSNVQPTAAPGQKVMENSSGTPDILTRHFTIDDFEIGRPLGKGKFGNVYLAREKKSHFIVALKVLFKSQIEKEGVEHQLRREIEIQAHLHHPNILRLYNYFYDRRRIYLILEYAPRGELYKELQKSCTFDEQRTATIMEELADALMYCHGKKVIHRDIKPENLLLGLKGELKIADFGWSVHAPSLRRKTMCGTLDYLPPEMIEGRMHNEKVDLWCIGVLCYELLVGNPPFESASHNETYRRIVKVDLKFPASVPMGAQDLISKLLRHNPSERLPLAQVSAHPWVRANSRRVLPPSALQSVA

[9] = target: Multidrug resistance protein CDR2 (Candida albicans (strain SC5314 / ATCC MYA-2876) (Yeast), UniProt P78595); assay: CaCDR2 efflux pump inhibitors in yeast, dose response, S. cerevisiae AD1-8u, singleplex, Cherry Pick1 hits (AID 588604)
Sequence of Multidrug resistance protein CDR2 (P78595 whole entry): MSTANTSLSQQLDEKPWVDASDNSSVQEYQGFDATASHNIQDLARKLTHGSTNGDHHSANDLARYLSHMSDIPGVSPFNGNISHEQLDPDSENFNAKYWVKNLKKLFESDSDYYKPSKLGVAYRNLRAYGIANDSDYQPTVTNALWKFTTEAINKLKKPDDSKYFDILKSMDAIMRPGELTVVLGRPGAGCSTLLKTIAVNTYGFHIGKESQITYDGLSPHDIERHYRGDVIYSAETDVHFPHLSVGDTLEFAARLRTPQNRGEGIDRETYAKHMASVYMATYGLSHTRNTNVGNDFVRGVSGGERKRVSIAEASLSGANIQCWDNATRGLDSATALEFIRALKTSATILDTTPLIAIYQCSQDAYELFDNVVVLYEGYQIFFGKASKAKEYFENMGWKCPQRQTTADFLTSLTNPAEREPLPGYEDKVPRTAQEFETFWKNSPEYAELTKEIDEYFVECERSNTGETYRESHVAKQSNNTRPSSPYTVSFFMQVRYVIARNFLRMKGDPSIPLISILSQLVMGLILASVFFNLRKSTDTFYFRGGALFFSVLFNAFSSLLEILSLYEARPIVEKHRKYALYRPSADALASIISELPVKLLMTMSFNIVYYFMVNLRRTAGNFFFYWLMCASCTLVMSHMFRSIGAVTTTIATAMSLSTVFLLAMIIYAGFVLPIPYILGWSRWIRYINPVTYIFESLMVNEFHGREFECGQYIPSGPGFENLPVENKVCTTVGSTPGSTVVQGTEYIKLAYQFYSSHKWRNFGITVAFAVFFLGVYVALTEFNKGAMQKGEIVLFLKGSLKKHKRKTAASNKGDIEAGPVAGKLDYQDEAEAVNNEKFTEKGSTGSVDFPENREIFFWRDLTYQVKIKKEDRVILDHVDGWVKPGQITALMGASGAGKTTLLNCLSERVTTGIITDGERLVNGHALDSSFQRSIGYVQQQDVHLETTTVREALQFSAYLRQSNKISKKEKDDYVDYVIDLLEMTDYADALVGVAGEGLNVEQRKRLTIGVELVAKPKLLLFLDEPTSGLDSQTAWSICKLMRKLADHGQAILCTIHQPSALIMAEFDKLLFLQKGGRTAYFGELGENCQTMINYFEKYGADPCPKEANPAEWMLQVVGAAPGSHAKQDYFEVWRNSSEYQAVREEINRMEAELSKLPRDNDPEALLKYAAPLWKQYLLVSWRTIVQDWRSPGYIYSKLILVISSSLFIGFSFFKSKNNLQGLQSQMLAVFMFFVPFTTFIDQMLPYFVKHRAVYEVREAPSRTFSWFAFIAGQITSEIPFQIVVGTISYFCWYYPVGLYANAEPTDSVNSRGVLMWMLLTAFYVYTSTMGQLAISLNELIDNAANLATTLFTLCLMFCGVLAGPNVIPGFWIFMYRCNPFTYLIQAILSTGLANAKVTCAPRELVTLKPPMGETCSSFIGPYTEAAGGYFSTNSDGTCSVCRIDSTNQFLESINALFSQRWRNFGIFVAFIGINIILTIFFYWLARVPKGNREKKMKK

[10] = target: Benomyl/methotrexate resistance protein (Candida albicans, UniProt P28873); assay: CaMdr1 efflux pump inhibitor potency, dose response, singleplex, Cherry Pick1 hits (AID 588608)
[11] = target: Interleukin-1 receptor-associated kinase 4 (Homo sapiens, UniProt Q9NWZ3)
[12] = target: Cyclin-dependent kinase 1 (Homo sapiens, UniProt P06493);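 note: Kinome-wide panel profiling, with the target listed as panel member CDC2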
[13] = target: T1, Orexin/Hypocretin receptor type 1 (Homo sapiens, UniProt O43613); assay: (§1) Fluorescence-based cell-based high throughput dose response assay for antagonists of the orexin 1 receptor (OX1R; HCRTR1). [Related pubchem assays (depositor defined):AID434989, AID435008, AID463079, AID485270, AID492963, AID492964, AID492965, AID493232, AID504717, AID504718]
T1 sequence (O43613 whole entry): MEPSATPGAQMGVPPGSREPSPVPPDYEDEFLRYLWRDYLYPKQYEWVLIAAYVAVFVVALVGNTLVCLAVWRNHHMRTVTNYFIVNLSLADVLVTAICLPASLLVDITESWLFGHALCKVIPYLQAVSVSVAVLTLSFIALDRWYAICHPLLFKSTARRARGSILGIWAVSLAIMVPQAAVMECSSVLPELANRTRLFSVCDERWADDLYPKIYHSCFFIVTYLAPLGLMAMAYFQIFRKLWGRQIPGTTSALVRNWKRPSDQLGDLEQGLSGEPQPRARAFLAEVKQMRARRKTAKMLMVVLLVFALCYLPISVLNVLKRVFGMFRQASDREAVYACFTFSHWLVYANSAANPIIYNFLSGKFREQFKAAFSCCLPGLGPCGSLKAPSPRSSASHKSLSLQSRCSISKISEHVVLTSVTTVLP

[14] = tested on: CHO-K1; assay: (§2) Counterscreen for antagonists of the orexin 1 receptor (OX1R; HCRTR1): Homogeneous time resolved fluorescence (HTRF)-based cell-based dose response assay to identify antagonists of the parental CHO-K1 cell line. [Related pubchem assays (depositor defined):AID434989, AID435008, AID463079, AID485270, AID492963, AID492964, AID492965, AID493232, AID504699, AID504701]; conditions: Cricetulus griseus
[15] = target: T2, Sentrin-specific protease 8 (Homo sapiens, UniProt Q96LD8)
T2 sequence (Q96LD8 whole entry): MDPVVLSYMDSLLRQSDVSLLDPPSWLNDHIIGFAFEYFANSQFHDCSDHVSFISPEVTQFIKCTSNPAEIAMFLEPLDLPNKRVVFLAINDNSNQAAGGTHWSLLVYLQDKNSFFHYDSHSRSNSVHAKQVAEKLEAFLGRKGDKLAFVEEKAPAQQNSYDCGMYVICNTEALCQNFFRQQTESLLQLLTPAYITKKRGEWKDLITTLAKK

[16] = target: T3, Orexin receptor type 2 (Homo sapiens, UniProt O43614); assay: Counterscreen assay for antagonists of the orexin 1 receptor (OX1R; HCRTR1): Homogeneous Time Resolved Fluorescence (HTRF)-based cell-based dose response assay for antagonists of the orexin 2 receptor (OX2R; HCRTR2), run by assay provider.
T3 sequence (O43614 whole entry): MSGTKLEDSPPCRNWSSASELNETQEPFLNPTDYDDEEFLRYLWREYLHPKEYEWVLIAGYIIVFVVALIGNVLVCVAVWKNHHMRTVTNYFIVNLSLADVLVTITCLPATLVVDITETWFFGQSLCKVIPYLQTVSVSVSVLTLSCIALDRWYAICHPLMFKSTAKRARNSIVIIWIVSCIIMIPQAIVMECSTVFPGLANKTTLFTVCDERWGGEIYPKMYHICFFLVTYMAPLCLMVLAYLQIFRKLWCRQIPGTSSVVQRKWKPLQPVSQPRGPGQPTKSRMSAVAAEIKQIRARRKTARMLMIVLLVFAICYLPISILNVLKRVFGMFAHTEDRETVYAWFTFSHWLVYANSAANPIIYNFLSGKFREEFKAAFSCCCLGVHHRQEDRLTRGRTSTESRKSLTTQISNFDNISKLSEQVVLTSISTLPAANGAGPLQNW

[17] = target: T1, Orexin/Hypocretin receptor type 1; assay: as §1, with “Homogeneous Time Resolved Fluorescence (HTRF)-based” for “Fluorescence-based”
[18] = as §2, with “Fluorescence-based” for “Homogeneous time resolved fluorescence (HTRF)-based”, “cell-based high throughput” for “cell-based”, “CHO” for “CHO-K1”
[19] = target: T3, Orexin receptor type 2; assay: Counterscreen assay for antagonists of the orexin 1 receptor (OX1R; HCRTR1): Fluorescence-based cell-based dose response assay for antagonists of the orexin 2 receptor (OX2R; HCRTR2), run by assay provider.
[20] = target: T2, Sentrin-specific protease 8; remark: listed apart in the source
[21] = target: LIM domain kinase 1 (Homo sapiens, UniProt P53667); assay: Navigating the Kinome. Panel member name: LIMK1
Sequence of LIM domain kinase 1 (P53667 whole entry, the tested form may be a part): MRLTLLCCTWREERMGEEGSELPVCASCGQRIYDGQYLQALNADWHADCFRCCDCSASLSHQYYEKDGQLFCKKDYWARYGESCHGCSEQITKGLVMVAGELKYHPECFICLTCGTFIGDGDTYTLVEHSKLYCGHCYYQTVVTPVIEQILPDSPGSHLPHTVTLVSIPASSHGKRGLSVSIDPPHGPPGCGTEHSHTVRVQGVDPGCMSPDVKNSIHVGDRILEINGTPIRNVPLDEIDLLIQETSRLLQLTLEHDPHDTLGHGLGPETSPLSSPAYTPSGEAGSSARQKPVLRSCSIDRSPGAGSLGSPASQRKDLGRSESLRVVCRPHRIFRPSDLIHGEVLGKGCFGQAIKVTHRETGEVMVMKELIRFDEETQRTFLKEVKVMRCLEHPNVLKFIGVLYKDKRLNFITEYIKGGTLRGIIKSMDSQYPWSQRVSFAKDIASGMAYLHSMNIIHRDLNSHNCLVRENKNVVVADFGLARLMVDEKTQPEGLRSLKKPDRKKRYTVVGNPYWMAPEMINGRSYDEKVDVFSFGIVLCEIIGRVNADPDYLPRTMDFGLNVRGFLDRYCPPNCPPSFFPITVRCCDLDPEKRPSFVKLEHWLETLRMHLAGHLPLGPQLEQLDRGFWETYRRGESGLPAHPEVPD

[22] = target: Dual specificity tyrosine-phosphorylation-regulated kinase 1A (Homo sapiens, UniProt Q13627);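 note: measured against DYRK1A as one member of a broad kinome profiling panel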
[23] = target: Dual specificity protein kinase CLK4 (Homo sapiens, UniProt Q9HAZ1)
[24] = target: Serine/threonine-protein kinase Chk1 (Homo sapiens, UniProt O14757);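 note: measured as one member of a kinome-wide kinase profiling panel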
Sequence of Serine/threonine-protein kinase Chk1 (O14757 whole entry): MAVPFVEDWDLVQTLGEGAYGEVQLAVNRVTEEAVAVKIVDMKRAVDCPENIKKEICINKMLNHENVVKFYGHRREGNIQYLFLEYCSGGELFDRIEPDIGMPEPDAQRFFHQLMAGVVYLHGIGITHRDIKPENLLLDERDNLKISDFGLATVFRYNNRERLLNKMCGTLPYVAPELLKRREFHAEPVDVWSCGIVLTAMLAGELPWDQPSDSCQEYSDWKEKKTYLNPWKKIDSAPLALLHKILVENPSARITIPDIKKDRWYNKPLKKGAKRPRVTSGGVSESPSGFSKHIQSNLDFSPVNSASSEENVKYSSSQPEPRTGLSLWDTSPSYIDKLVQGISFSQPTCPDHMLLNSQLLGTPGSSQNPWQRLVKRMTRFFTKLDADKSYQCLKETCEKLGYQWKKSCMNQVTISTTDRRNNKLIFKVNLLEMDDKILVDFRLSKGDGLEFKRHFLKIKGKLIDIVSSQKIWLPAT

[25] = target: Hepatocyte growth factor receptor (Homo sapiens, UniProt P08581);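 note: kinase panel profiling across the kinome, with MET as the panel member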
[26] = target: Mitogen-activated protein kinase kinase kinase kinase 2 (Homo sapiens, UniProt Q12851);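 note: measured as one member of a kinome-wide kinase panel, with MAP4K2 as the panel entry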
[27] = target: Dual specificity mitogen-activated protein kinase kinase 2 (Homo sapiens, UniProt P36507); assay: Navigating the Kinome. Panel member name: MAP2K2
[28] = target: Serine/threonine-protein kinase pim-1 (Homo sapiens, UniProt P11309)
Sequence of Serine/threonine-protein kinase pim-1 (P11309 whole entry): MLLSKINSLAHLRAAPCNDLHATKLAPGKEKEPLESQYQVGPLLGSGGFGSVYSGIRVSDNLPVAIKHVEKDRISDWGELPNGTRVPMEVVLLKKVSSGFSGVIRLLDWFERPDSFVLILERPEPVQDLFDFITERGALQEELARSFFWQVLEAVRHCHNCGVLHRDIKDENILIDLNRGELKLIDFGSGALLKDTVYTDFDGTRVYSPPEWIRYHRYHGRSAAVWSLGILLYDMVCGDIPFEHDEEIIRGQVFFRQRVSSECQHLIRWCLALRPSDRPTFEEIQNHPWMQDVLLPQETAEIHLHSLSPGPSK

[29] = target: Cyclin-dependent kinase 8 (Homo sapiens, UniProt P49336); assay: Navigating the Kinome. Panel member name: CDK8

Sequence of Mitogen-activated protein kinase 13 (O15264 whole entry): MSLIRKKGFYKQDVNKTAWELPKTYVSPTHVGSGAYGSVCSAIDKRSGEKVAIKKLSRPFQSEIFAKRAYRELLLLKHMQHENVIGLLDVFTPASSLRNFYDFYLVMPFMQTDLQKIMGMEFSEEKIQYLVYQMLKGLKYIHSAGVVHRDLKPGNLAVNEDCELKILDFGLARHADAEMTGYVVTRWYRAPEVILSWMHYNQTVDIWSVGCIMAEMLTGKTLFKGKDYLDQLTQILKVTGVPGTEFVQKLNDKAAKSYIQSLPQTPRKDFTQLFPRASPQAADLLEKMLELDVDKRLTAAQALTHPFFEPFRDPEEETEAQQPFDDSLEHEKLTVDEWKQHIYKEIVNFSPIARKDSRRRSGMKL

Q: For `Cc1cccc(NC(=O)Nc2ccc(-c3ccc4nccnc4c3N)cc2)c1`, which Ki [1] is on record?
A: > 7.94 µM (inactive)

Q: What does the source list for `CCN1CCN(c2ccc(Nc3nccc(Nc4ccc5[nH]ncc5c4)n3)cc2)CC1`?
A: Ki [2]: 1 µM (active); Ki [3]: 0.158 µM (active)

Q: Which IC50 [4] does the source give for `CCOc1ccc(Oc2c(Cl)c(C)nn(Cc3cccc4ccccc34)c2=O)cc1` here?
A: 14.8 µM (inactive)

Q: And the IC50 [5]?
A: 1.88 µM (active)

Q: Which Ki [6] does the source give for `Cc1ccc(F)c(NC(=O)Nc2ccc(-c3cc(CO)c(F)c4[nH]nc(N)c34)cc2)c1` here?
A: 0.126 µM (active)

Q: And the Ki [7]?
A: 2 µM (active)

Q: And the Ki [8]?
A: 0.01 µM (active)

Q: Which EC50 [9] does the source give for `CCN(CC)c1ccc(/C=C/c2cc(-c3ccccc3)c3ccccc3n2)cc1` here?
A: 16.1 µM (active)

Q: And the EC50 [10]?
A: 3.32 µM (active)

Q: Which Ki [11] does the source give for `CS(=O)(=O)Nc1ccccc1-c1ccc2c(c1)Nc1ccccc1NC2=O` here?
A: 3.98 µM (active)

Q: What about the Ki [12] of the same molecule?
A: 7.94 µM (active)

Q: Which IC50 [13] does the source give for `CCOc1cc(C(=S)N2CCOCC2)cc(Br)c1OS(=O)(=O)c1ccccc1` here?
A: 8.68 µM (active)

Q: What about the IC50 [14] of the same molecule?
A: > 66.2 µM (inactive)

Q: What about the IC50 [15] of the same molecule?
A: 8.6 µM (active)

Q: And the IC50 [16]?
A: > 50 µM (inactive)

Q: What about the IC50 [17] of the same molecule?
A: 4.56 µM (active)

Q: And the IC50 [18]?
A: > 49.8 µM (inactive)

Q: And the IC50 [19]?
A: 6.2 µM (active)

Q: What about the IC50 [20] of the same molecule?
A: 8.96 µM (active)

Q: Which Ki [21] does the source give for `O=C(O)c1cnc2sccn2c1=O` here?
A: 50.1 µM (active)

Q: What about the Ki [22] of the same molecule?
A: 63.1 µM (active)

Q: And the Ki [23]?
A: 39.8 µM (active)

Q: And the Ki [24]?
A: 39.8 µM (active)

Q: With `Oc1ccc(Cl)cc1C1=NNC(c2ccc3c(c2)OCCO3)C1` (centres undefined) as the molecule, how does the Ki [25] read?
A: 1.26 µM (active)

Q: What about the Ki [26] of the same molecule?
A: 2.51 µM (active)

Q: And the Ki [27]?
A: 3.16 µM (active)

Q: What about the Ki [28] of the same molecule?
A: 2 µM (active)

Q: What about the Ki [29] of the same molecule?
A: 3.16 µM (active)
